Data published in ChEMBL document CHEMBL6182856, “Novel one-/two-photon excited carbazole/quinolinium photosensitizers manifest nanomolar and hypoxia-resistant tumor photodynamic therapy by accelerating apoptosis, ferroptosis, and autophagy” (Eur J Med Chem, 2025).
Active and inactive are the calls of the source. The calls are words filed in the database; no cut-off is given here.

Tests used:
[1] = Photosensitizing ability of the compound in methanol assessed as singlet oxygen production by measuring quantum yield measured upon irradiation by DPBF based assay; type: functional
[2] = Photosensitizing ability of the compound assessed as hydroxyl radical production measured upon irradiation by HPF probe based assay; type: functional
[3] = Photosensitizing ability of the compound assessed as singlet oxygen production measured upon irradiation by electron spin resonance analysis; type: functional
[4] = Phototoxicity against human A549 cells assessed as inhibition of cell growth incubated for 24 hrs measured under normoxia conditions and after two-photon excitation upon irradiation with light at 808 nm, 200 mW/cm2 for 10 mins by MTT assay; type: functional, cell-based; conditions: A549, light or radiation study
[5] = Phototoxicity against human A549 cells assessed as inhibition of cell growth incubated for 24 hrs measured under normoxia conditions and after one-photon excitation upon irradiation with light at 520 nm, 200 mW/cm2 for 10 mins by MTT assay; type: functional, cell-based; conditions: A549, light or radiation study
A549 [6] = assay: Cytotoxicity against human A549 cells assessed as inhibition of cell growth incubated for 24 hrs measured under normoxia conditions by MTT assay; type: functional, cell-based; conditions: A549, 24 h
[7] = Phototoxicity against mouse 4T1 cells assessed as inhibition of cell growth incubated for 24 hrs measured under normoxia conditions and after one-photon excitation upon irradiation with light at 520 nm, 200 mW/cm2 for 10 mins by MTT assay; type: functional, cell-based; conditions: 4T1, light or radiation study
[8] = Phototherapeutic index, ratio of IC50 for cytotoxicity against human A549 cells measured under normoxia conditions to IC50 for phototoxicity against human A549 cells measured under normoxia conditions and after two-photon excitation upon irradiation with light at 808 nm, 200 mW/cm2 for 10 mins; type: functional
4T1 = assay: Phototherapeutic index, ratio of IC50 for cytotoxicity against mouse 4T1 cells measured under normoxia conditions to IC50 for phototoxicity against mouse 4T1 cells measured under normoxia conditions and after one-photon excitation upon irradiation with light at 520 nm, 200 mW/cm2 for 10 mins; type: functional
[9] = Phototoxicity against human A549 cells assessed as inhibition of cell growth incubated for 24 hrs measured under hypoxia conditions and after one-photon excitation upon irradiation with light at 520 nm, 200 mW/cm2 for 10 mins by MTT assay; type: functional, cell-based; conditions: A549, light or radiation study
[10] = Phototherapeutic index, ratio of IC50 for cytotoxicity against human A549 cells measured under hypoxia conditions to IC50 for phototoxicity against human A549 cells measured under hypoxia conditions and after two-photon excitation upon irradiation with light at 808 nm, 200 mW/cm2 for 10 mins; type: functional
[11] = Drug uptake in human A549 cells assessed as localization in lysosomes by measuring appearance of yellow fluorescence by Hoechst33342/LysoTracker dye based confocal laser scanning microscopic analysis; type: ADME, cell-based
A549 [12] = assay: (§1) Photosensitizing ability of the compound in human A549 cells assessed as increase in intracellular ROS generation by measuring increase in fluorescence intensity measured upon light irradiation under normoxia conditions by DCFH-DA staining based fluorescence analysis relative to FLI in cells without irradiation; type: functional
A549 [13] = assay: as §1, with “singlet oxygen” for “ROS”, “SOSG probe” for “DCFH-DA staining”; type: functional
A549 [14] = assay: Induction of mitochondrial damage in human A549 cells assessed as decrease in red fluorescence intensity measured upon light irradiation by JC-1 staining based fluorescence analysis; type: functional, cell-based
A549 [15] = assay: Induction of apoptosis in human A549 cells assessed as viable cells measured under dark conditions by AnnexinV-FITC/PI staining based flow cytometric analysis (reference value: 99.7%); type: functional
A549 [16] = assay: Induction of apoptosis in human A549 cells assessed as early apoptotic cells measured under dark conditions by AnnexinV-FITC/PI staining based flow cytometric analysis (reference value: 0.12%); type: functional
A549 [17] = assay: Induction of apoptosis in human A549 cells assessed as late apoptotic cells measured under dark conditions by AnnexinV-FITC/PI staining based flow cytometric analysis (reference value: 0.17%); type: functional
A549 [18] = assay: Induction of apoptosis in human A549 cells assessed as early apoptotic cells measured upon light irradiation by AnnexinV-FITC/PI staining based flow cytometric analysis (reference value: 0.39%); type: functional
A549 [19] = assay: Induction of apoptosis in human A549 cells assessed as late apoptotic cells measured upon light irradiation by AnnexinV-FITC/PI staining based flow cytometric analysis (reference value: 0.15%); type: functional
A549 [20] = assay: Induction of apoptosis in human A549 cells assessed as necrotic cells measured upon light irradiation by AnnexinV-FITC/PI staining based flow cytometric analysis (reference value: 1.04%); type: functional
A549 [21] = assay: Induction of apoptosis in human A549 cells assessed as increase in cleaved caspase-3 expression measured upon light irradiation by western blot analysis relative to control; type: functional
A549 [22] = assay: Induction of DNA damage in human A549 cells assessed as increase in gammaH2AX expression measured upon light irradiation by western blot analysis relative to control; type: functional
A549 [23] = assay: Induction of ferroptosis in human A549 cells assessed as increase in lipid peroxidation by measuring decrease in GPX4 protein expression measured upon irradiation by western blot analysis relative to control; type: functional
A549 [24] = assay: Induction of ferroptosis in human A549 cells assessed as increase in lipid peroxidation by measuring increase in MDA level measured upon irradiation relative to control; type: functional
A549 [25] = assay: Induction of ferroptosis in human A549 cells assessed as increase in lipid peroxidation by measuring reduction in red fluorescence of the reduced state measured upon irradiation by BODIPY 581/591C11 probe based confocal imaging analysis; type: functional, cell-based
A549 [26] = assay: Induction of ferroptosis in human A549 cells assessed as increase in lipid peroxidation by measuring increase in green fluorescence of the oxidized state measured upon irradiation by BODIPY 581/591C11 probe based confocal imaging analysis; type: functional, cell-based
A549 [27] = assay: Induction of ferroptosis in human A549 cells assessed as increase in lipid peroxidation by measuring increase in green-to-red fluorescence ratio measured upon irradiation by BODIPY 581/591C11 probe based confocal imaging analysis relative to control; type: functional
A549 [28] = assay: In vivo photodynamic therapy based antitumor activity against human A549 cells xenografted in mouse assessed as tumor growth inhibition administered intratumorally followed by exposure to light on day 0 and 7 and measured on day 15; type: functional; conditions: route it(Intratumoral); time 15 day
[29] = Toxicity against mouse xenografted with human A549 cells assessed as changes in body weight administered intratumorally followed by exposure to light on day 0 and 7 and measured for 15 days; conditions: in vivo, other, 360 h, route it(Intratumoral), time 15 day
[30] = Toxicity against mouse xenografted with human A549 cells assessed as changes in biochemical indicators administered intratumorally on day 0 and 7 and measured on day 15; conditions: in vivo, other, 360 h, route it(Intratumoral), time 15 day
[31] = Toxicity against mouse xenografted with human A549 cells assessed as changes in hematological indicators administered intratumorally on day 0 and 7 and measured on day 15; conditions: in vivo, other, 360 h, route it(Intratumoral), time 15 day
[32] = Toxicity against mouse xenografted with human A549 cells assessed as changes in hematological indicators administered intratumorally followed by exposure to light on day 0 and 7 and measured on day 15; conditions: in vivo, other, 360 h, route it(Intratumoral), time 15 day
[33] = Photosensitizing ability of the compound assessed as hydroxyl radical production upon irradiation by HPF probe based assay relative to KAKQ; type: functional
[34] = Photosensitizing ability of the compound assessed as hydroxyl radical production upon irradiation by HPF probe based assay relative to RuB; type: functional

Drug uptake [11]: Active
Structure (SMILES): CCn1c2ccc(/C=C/c3cc[n+](C)c4ccccc34)cc2c2cc(N(c3ccccc3)c3ccccc3)ccc21.[I-]
Activity [1]: 0.38
Activity [2]: Active
Activity [3]: Active
IC50 [4]: 130 nM
IC50 [5]: 27 nM
IC50 (A549 [6]): 1470 nM
IC50 [7]: 51 nM
Ratio IC50 [8]: 11
Ratio IC50 (4T1): 21
IC50 [9]: 43 nM
Ratio IC50 [10]: 10
fold change (FC) (A549 [12]): 4
fold change (FC) (A549 [13]): 4
Activity (A549 [14]): Active
Activity (A549 [15]): 50.4%
Activity (A549 [16]): 18.1%
Activity (A549 [17]): 30.7%
Activity (A549 [18]): 2.36%
Activity (A549 [19]): 87.8%
Activity (A549 [20]): 2.56%
fold change (FC) (A549 [21]): 3
fold change (FC) (A549 [22]): 4
fold change (FC) (A549 [23]): 3.3
fold change (FC) (A549 [24]): 10
Activity (A549 [25]): Active
Activity (A549 [26]): Active
fold change (FC) (A549 [27]): 24
TGI (A549 [28]): 90.7%
Activity [29]: Non-toxic
Activity [30]: Non-toxic
Activity [31]: Non-toxic
Activity [32]: Non-toxic
fold change (FC) [33]: 3
fold change (FC) [34]: 3
